Assay results as given in patent publication US20080311103A1, “Anti-Inflammatory Peptides and Methods of Use Thereof” (YEDA RESEARCH AND DEVELOPMENT CO. LTD. at THE WEIZMANN …, priority 2004, published 2008).

What was measured:
Jurkat and THP-1 cells = experiment: TNFα secretion by PMA/PHA induced Jurkat and THP-1 cells; format: cell-based, human; conditions: peptide 1 μg/ml; 48 hours; ELISA
Method: Jurkat cells human T cell lymphoma line) (2×10^6 cells/ml) cultured in RPMI-1640 supplemented with 10% FCS were activated with PMA (50 ng/ml) and phytohaemagglutinin PHA (4 µg/ml) for 6 hours at 37° C. (7.5% CO2-humidified atmosphere). Thereafter, the cells were washed, plated on 24-well plates (10^6 cells/well in 0.5 ml), and incubated (1 hour at 37° C., 7.5% CO2-humidified atmosphere) with the indicated concentrations of peptides 1-5. Following the incubation, THP-1 cells (human monocytic cell line derived from a patient with acute monocytic leukaemia; 1.25×10^5 cells/0.5 ml/well) were added to the wells. After 48 hours, the supernatants were collected and their TNF[…] content was determined by ELISA using anti TNF[…] mAb (Pharmingen; San Diego, Calif.) according to the manufacturer's instructions.

[1] = system: mice sensitized with oxazolone; format: in vivo, mouse; conditions: FIG. 1; peptides by implanted osmotic pump, 0.2 μg/hour for 7 days; ear measured 24 hours after oxazolone challenge; BALB/c mice
Method: Groups of 5 female inbred BALB/c mice (The Jackson Laboratory, Bar Harbor, Me.) were sensitized on the shaved abdominal skin with 2% oxazolone (100 μl) dissolved in acetone/olive oil [4:1 (vol/vol)] applied topically. Delayed type hypersensitivity (DTH) was elicited 5 days later by challenging the mice with 0.5% oxazolone in acetone/olive oil (10 μl given topically to each side of the ear). A constant area of the ear was measured immediately before and 24 hours after the challenge using a Mitutoyo engineer's micrometer. The percent inhibition of DTH is calculated as follows:
% Inhibition=[1-{(treated−negative control)/(positive control−negative control)}]×100.
The positive control is the DTH reaction to oxazolone elicited in sensitized mice without treatment. The negative control is the background swelling produced by the oxazolone antigen in naïve non-sensitized mice.
Peptides Nos. 1-5 were given to the mice by mini perfusion pumps (alzet osmotic pump model 2001), which contained the indicated peptide (40 μg; 200 μl). The pumps were implanted under the mouse skin one day before oxazolone sensitization and they released the peptide in a rate of 1 μl per hour (0.2 μg/hour) for 7 days.
Peptides Nos. 6-10 were given to the mice by subcutaneously injection (1 μg or 10 μg per mouse), every day, starting at one day before oxazolone sensitization and ending at day 5 post DTH initiation.

[2] = system: anti-CD3 antibody induced TNFα secretion from T cells; experiment: TNFα secretion by anti-CD3 activated T cells; format: cell-based, human; conditions: peptide 100 ng/ml; 24 hours; ELISA; FIG. 7A
Method: (§1) Human T cells were purified and maintained in culture (RPMI containing 10% FCS, 1% Pyruvate, 1% glutamine, 1% antibiotics, 7.5% CO2, humidified atmosphere) for 15 hr before they were transferred to RPMI and activated (2 hr, 37° C.) with the indicated concentrations of the peptides. The cells were then plated (1.5×10^6 cells/0.5 ml/well) in 24 wells plates (non-tissue culture grade) precoated with anti-CD3 mAb in order to stimulate the cells to secrete cytokines. After 24 hours, the supernatants were collected and their cytokine content (TNFα and IFNγ) was determined by ELISA using anti-IFNγ and anti TNFα mAb (Pharmingen; San Diego, Calif.) according to the manufacturer's instructions.

NF-κB = experiment: Nuclear translocation of NF-κB in T cells (Western blot); format: cell-based; conditions: peptide 100 ng/ml for 2 hours, then anti-CD3 mAb 24 hr; human T cells
Text: To address the modulatory role of the wound fluid peptides on the signal transduction cascade leading to regulation of T-cell secretion of TNF-α(and IFN-γ, the nuclear translocation of NF-κB was detected by probing nuclear and cytoplasmic T-cell extracts using mAb specific for the p65 subunit of NF-κB. The nuclear protein Lamin B was used as continuatively expressed control protein for the quantification of protein amounts.
Human T cells. T cells were purified from the peripheral blood of healthy human donors (Blood Bank; Tel-Hashomer, Israel). The whole blood was incubated (20 min, 22° C.) with RosetteSep™ human T-cell enrichment cocktail (StemCell Technologies, Vancouver, BC, Canada). The remaining unsedimented cells were then loaded onto Lymphocyte Separation Medium (ICN Biomedicals; Belgium), isolated by density centrifugation, and washed with PBS. The purified cells (>95% CD3^+ T cells) so obtained were cultured in RPMI containing antibiotics and 10% heat-inactivated FCS. Western blot analysis of T-cell nuclear extracts. Purified T cells (5×10^6) were preincubated with the peptides (100 ng/ml) for 2 hours (37° C. in a 7% CO2, humidified atmosphere). The cells were then replated in 24-well plates pre-coated with anti-CD3 mAb for 24 hr (37° C. in a 7% CO2, humidified atmosphere). T cells were lysed in 10 mM HEPES, 1.5 mM MgCl2, 1 mM dithiothreitol (DTT), 1 mM PMSF, 0.5% Nonidet P-40. The lysates were incubated on ice for 10 min and centrifuged at 2000 rpm for 10 min at 4° C. The supernatants (cytoplasmic extracts) were transferred and the pellet (nuclei) was suspended in buffer containing 30 mM HEPES, 450 mM NaCl, 25% Glycerol, 0.5 mM EDTA, 6 mM DTT, 12 mM MgCl2 1 mM PMSF, 10 μg/ml leupeptin, 10 μg/ml pepstatin, 1% phosphatase inhibitor cocktail, and the suspension was incubated on ice for 30 min. The lysates were cleared by centrifugation (30 min, 14×10^3 rpm, 4° C.), and the resulting supernatants analyzed for protein content. […]

[3] = system: anti-CD3 antibody induced IFNγ secretion from T cells; experiment: IFNγ secretion by anti-CD3 activated T cells; format: cell-based, human; design: concentration or dose not given beside the values; conditions: 24 hours; ELISA; FIG. 7B
Method: as §1

T cells = experiment: Chemotaxis assay: T cell migration toward SDF-1α; format: cell-based; conditions: concentration range 10-1000 ng/ml; SDF-1α 250 ng/ml; 3 hr
Method: The migration of ^51-[Cr]-labeled T cells was examined in […] Transwell chemotaxis apparatus (6.5-mm diameter; Corning, N.Y.), consisting of two compartments separated by polycarbonate filters (5 μm pore size) pretreated (1 hr, 37° C.) with FN (25 μg/ml). ^51-[Cr]-labeled T cells (2×10^5 in 100 μl of RPMI containing 0.1% BSA and antibiotics), which were pre-incubated with the indicated concentrations of peptides (30 min, 37° C.), were added to the upper chambers. The bottom chambers contained 0.6 ml of the same media, with or without human Stromal cell-Derived Factor-1α (SDF-1α; 250 ng/ml). After incubation at 37° C. for 3 hr (7.5% CO2-humidified atmosphere), cells that had transmigrated into the lower wells were collected, centrifuged, and lysed (in 100 μl of distilled water containing 1 M NaOH and 0.1% Triton X-100), and the radioactivity in the resulting supernatants was determined with a γ-counter. The percentage (±SD) of cell migration was calculated as the radioactivity counts in the lysates of the lower chambers (representative of the migrating cells) divided by the total counts (representative of 2×10^5 cells).

BALB/C mice = experiment: Con A-induced hepatic injury (acute hepatitis model); format: in vivo; conditions: 50 μg/mouse intraperitoneally, 2 or 3 injections before ConA, especially after 3 treatments; FIG. 10B
Method: Con A (13 mg/kg) was administered i.v. to BALB/c mice 18 hours before analysis (Bonder, C. S. et al. 2004. J. Immunol. 172: 45-53). Mice were intraperitoneally injected with the peptides of the invention 48 and 2 hours before ConA injection.
Blood analysis: 18 hours after Con A injection, blood was obtained by cardiac puncture for detection of serum alanine aminotransferase (ALT) and aspartate aminotransferase (AST). The presence of these two enzymes in serum is used as an index of hepatocellular injury. The detection of ALT and AST was performed by a commercial kit for ALT and AST (Bayer Diagnostics, Tarry town, NY, USA) using an automated Monarch Monoanalyzer 2000 (Allied, Lexington, Mass.).

LSALEEYTKKLNTQ [peptide No. 2, residues 254-267 of Apo A-I; identified in wound fluids, then synthesized]
inhibition of TNFα secretion by Jurkat and THP-1 cells compared to PMA/PHA alone (Jurkat and THP-1 cells): 10%
inhibition of DTH response [1]: hardly inhibited
inhibition of anti-CD3 antibody induced TNFα secretion from T cells [2]: 40%
NF-κB translocation to the nucleus (NF-κB): significant down-regulation
inhibition of anti-CD3 antibody induced IFNγ secretion from T cells [3]: ~30%
inhibition of T cell transmigration toward SDF-1α (T cells): did not show a significant inhibition
resistance to ConA induced hepatitis (BALB/C mice): marked resistance
